For eight compounds, IC50 results are on record in patent US12448394B2, “Heterocyclic pyrazole derivatives as type III receptor tyrosine kinase inhibitors” (DEVELOPMENT CENTER FOR BIOTECHNOLOGY, priority 2019, dated 2025).

Molecules are shown by their SMILES. Bounds are passed on as bounds.

The subject of assay [1] is Molm-14 human acute myeloid leukemia cell with FLT3-ITD mutation. The assay is described as follows: Molm-14 cell proliferation assay (CellTiter 96). The assay is classed as cell-based. The following applies: Homo sapiens; Molm-14 cells, 72 hours treatment, CellTiter96; read-out: anti-proliferation activity Molm-14 (FLT3-ITD), IC50 ranking. The method, boiled down: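 Molm-14 (FLT3-ITD AML) cells in RPMI 1640 with 10% heat-inactivated FBS were seeded at 25000 cells/well, incubated overnight at 37° C, 5% CO2, then treated with increasing compound concentrations for 72 hours. Viability was read as absorbance at 490 nm after 2˜4 hours with CellTiter96 AQueous One reagent.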

Assay [2] concerns HCC827 NSCLC cell with EGFR exon 19 deletion mutation. The assay is described as follows: HCC827 cell proliferation assay (counter screen). The following applies: Homo sapiens, HCC827 cells, 72 hours treatment, CellTiter96, read-out: anti-proliferation activity HCC827 EGFR Exon19 del, IC50 ranking. The assay is classed as cell-based, human. The essentials: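 HCC827 cells (EGFR exon 19 deletion) were seeded at 8000 cells/well in RPMI1640 with 10% FBS, then exposed to increasing compound concentrations for 72 h at 37 °C. Viability was read by CellTiter96 AQueous One (MTS), absorbance 490 nm after 2–4 h.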

Assay [3] deals with T1, MET kinase (Homo sapiens, UniProt P08581).
T1 construct: purchased SignalChem
Nature of the assay: MET kinase assay (AlphaScreen, counter screen). The following applies: read-out: Ranking of IC50 values, MET. The assay is classed as biochemical. The method, boiled down: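 Recombinant MET kinase (1 ng) phosphorylated biotinylated poly(Glu4:Tyr1) with […] ATP (so in the source) in MOPS pH 7.0 buffer with 10 mM MgCl2, 45 min at 30 °C, stopped with EDTA. Product read by AlphaScreen; IC50 from serial dilutions run in duplicate.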
Background: In Alpha technology, singlet oxygen from a donor bead excites a nearby acceptor bead.

Assay [4] deals with THP-1 human acute monocytic leukemia cell with NRAS G12D mutation. The assay is described as follows: THP-1 cell proliferation assay (counter screen). In kind it is cell-based. The following applies: Homo sapiens, THP-1 cells, 72 hours treatment, CellTiter96, read-out: anti-proliferation activity THP-1 NRAS N12D, IC50 ranking. The method, boiled down: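 THP-1 cells (NRAS G12D, growth independent of class III RTK signaling) seeded at 5000 cells/well overnight, then exposed to increasing compound concentrations for 72 h at 37° C, 5% CO2. Viability read by CellTiter96 AQueous One reagent (2–4 h) as absorbance at 490 nm.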
For orientation: A counterscreen serves to expose hits that act by an unwanted route or on another target.

The subject of assay [5] is MV4-11 human acute myeloid leukemia cell with FLT3-ITD mutation. The assay is described as follows: MV4-11 cell proliferation assay (CellTiter 96). The assay is classed as cell-based. The following applies: Homo sapiens, MV4-11, 72 h, MV4-11 cells, 72 hours treatment, CellTiter96; read-out: anti-proliferation activity MV4-11 (FLT3-ITD), IC50 ranking. The essentials:
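Cells seeded at 6500/well in IMDM with 10% heat-inactivated FBS, left overnight at 37 °C, 5% CO2, then exposed to increasing compound concentrations for 72 h. Viability read as absorbance at 490 nm after 2–4 h with CellTiter96 AQueous One reagent.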

Assay [6] concerns A375 melanoma cell with BRAF V600E mutation. The assay is described as follows: A375 cell proliferation assay (counter screen). The assay is classed as cell-based, human. The following applies: Homo sapiens, A-375, A375 cells, 72 hours treatment, CellTiter96, read-out: anti-proliferation activity A375 BRAF V600E, IC50 ranking. The method, boiled down:
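A375 cells (BRAF V600E) seeded at 2000 cells/well in DMEM with 10% FBS, settled overnight at 37° C, 5% CO2, then exposed to increasing compound concentrations for 72 hours. Viability read by MTS-type CellTiter96 AQueous reagent, absorbance at 490 nm after 2–4 hours.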

T1 sequence (P08581 25-1390): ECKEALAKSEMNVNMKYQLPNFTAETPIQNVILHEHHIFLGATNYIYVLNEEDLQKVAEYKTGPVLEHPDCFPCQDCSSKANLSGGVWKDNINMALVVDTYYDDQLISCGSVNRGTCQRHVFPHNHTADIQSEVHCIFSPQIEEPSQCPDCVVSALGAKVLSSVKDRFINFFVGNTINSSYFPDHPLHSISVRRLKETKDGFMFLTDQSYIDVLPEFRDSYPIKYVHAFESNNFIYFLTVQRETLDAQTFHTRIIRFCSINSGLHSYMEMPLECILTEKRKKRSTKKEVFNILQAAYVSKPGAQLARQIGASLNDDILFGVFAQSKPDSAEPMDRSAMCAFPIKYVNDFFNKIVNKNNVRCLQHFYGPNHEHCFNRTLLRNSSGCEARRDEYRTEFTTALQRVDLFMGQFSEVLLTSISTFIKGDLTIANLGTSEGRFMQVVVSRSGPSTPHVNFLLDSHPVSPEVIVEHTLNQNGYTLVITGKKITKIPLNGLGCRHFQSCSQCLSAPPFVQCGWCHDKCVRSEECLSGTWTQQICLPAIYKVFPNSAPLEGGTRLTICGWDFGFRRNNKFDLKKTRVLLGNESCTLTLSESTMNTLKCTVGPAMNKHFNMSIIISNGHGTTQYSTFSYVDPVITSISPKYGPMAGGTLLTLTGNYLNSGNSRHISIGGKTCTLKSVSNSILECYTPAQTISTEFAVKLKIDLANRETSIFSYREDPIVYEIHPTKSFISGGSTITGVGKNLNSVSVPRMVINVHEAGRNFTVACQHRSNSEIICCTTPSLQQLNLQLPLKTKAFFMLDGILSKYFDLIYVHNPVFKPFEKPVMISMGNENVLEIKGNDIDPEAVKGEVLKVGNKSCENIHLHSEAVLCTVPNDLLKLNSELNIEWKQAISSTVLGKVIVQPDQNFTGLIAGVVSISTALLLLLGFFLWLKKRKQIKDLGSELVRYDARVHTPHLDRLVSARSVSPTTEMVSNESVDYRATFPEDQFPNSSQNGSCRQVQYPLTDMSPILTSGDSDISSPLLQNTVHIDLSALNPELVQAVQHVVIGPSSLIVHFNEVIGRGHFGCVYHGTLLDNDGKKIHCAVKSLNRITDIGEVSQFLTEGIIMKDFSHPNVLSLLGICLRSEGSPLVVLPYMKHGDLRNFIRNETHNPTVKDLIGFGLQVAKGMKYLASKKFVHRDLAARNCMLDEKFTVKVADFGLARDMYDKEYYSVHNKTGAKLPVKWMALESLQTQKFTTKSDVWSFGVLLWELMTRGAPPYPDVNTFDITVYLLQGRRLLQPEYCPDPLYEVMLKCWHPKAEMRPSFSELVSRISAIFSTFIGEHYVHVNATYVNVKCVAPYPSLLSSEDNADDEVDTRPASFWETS

`COc1ccc(-c2cc3c(s2)Cc2c(-c4ccc5[nH]ncc5c4)n[nH]c2-3)cn1` [Compound 1, 3-(1H-indazol-5-yl)-6-(6-methoxypyridin-3-yl)-1,4-dihydrothieno[2′,3′:4,5] cyclopenta[1,2-c]pyrazole]: the IC50 is 0.03 to 0.1 µM in assay [1]; over 10 µM in assay [2]; over 1 µM in assay [3]; over 10 µM in assay [4]; 0.03 to 0.1 µM in assay [5]; over 10 µM in assay [6].

`COc1ccc(-c2cc3c(s2)Cc2c(-c4ccc5cn[nH]c5c4)n[nH]c2-3)cn1` [Compound 2, 3-(1H-indazol-6-yl)-6-(6-methoxypyridin-3-yl)-1,4-dihydrothieno[2′,3′:4,5] cyclopenta[1,2-c]pyrazole]: the IC50 in assay [1] was 0.03 to 0.1 µM; in assay [2], over 10 µM; in assay [3] it was over 1 µM; in assay [4] it was over 10 µM; in assay [5] it was 0.03 to 0.1 µM; in assay [6], over 10 µM.

Turning to `Nc1ccc(-c2cc3c(s2)Cc2c(-c4ccc5cn[nH]c5c4)n[nH]c2-3)cn1` [Compound 3, 5-(3-(1H-indazol-6-yl)-1,4-dihydrothieno[2′,3′:4,5]cyclopenta[1,2-c]pyrazol-6-yl)pyridin-2-amine], the IC50 in assay [1] is under 0.03 µM; in assay [2], over 10 µM; in assay [3], over 1 µM; in assay [4], over 10 µM; in assay [5], under 0.03 µM; in assay [6] it was over 10 µM.

`COc1ccc(-c2cc3c(s2)Cc2c(-c4ccc5cnn(C)c5c4)n[nH]c2-3)cn1` [Compound 4, 6-(6-methoxypyridin-3-yl)-3-(1-methyl-1H-indazol-6-yl)-1,4-dihydrothieno [2′,3′:4,5]cyclopenta[1,2-c] pyrazole]: the IC50 in assay [1] is 0.1 to 0.3 µM; in assay [2] it was over 10 µM; in assay [3] it was over 1 µM; in assay [4], over 10 µM; in assay [5], 0.1 to 0.3 µM; in assay [6], over 10 µM.

As for `Cc1ccc(-c2cc3c(s2)Cc2c(-c4ccc5cn[nH]c5c4)n[nH]c2-3)cn1` [Compound 30, 3-(1H-indazol-6-yl)-6-(6-methylpyridin-3-yl)-1,4-dihydrothieno[2′,3′:4,5] cyclopenta[1,2-c]pyrazole], the IC50 in assay [1] is 0.03 to 0.1 µM; in assay [2], over 10 µM; in assay [3], over 1 µM; in assay [4] it was over 10 µM; in assay [5] it was 0.03 to 0.1 µM; in assay [6] it was over 10 µM.

Regarding `Cc1ccc(-c2cc3c(s2)Cc2c(-c4ccc5[nH]ncc5c4)n[nH]c2-3)cn1` [Compound 36, 3-(1H-indazol-5-yl)-6-(6-methylpyridin-3-yl)-1,4-dihydrothieno[2′,3′:4,5] cyclopenta[1,2-c]pyrazole], the IC50 is 0.03 to 0.1 µM in assay [1]; over 10 µM in assay [2]; over 1 µM in assay [3]; over 10 µM in assay [4]; under 0.03 µM in assay [5]; over 10 µM in assay [6].

For `Nc1ccc(-c2cc3c(s2)Cc2c(-c4ccc5[nH]ncc5c4)n[nH]c2-3)cn1` [Compound 40, 5-(3-(1H-indazol-5-yl)-1,4-dihydrothieno [2′,3′:4,5]cyclopenta [1,2-c]pyrazol-6-yl) pyridin-2-amine], the IC50 is under 0.03 µM in assay [1]; 1 to 10 µM in assay [2]; over 1 µM in assay [3]; 1 to 10 µM in assay [4]; under 0.03 µM in assay [5]; 1 to 10 µM in assay [6].

With `Cn1ncc2ccc(-c3n[nH]c4c3Cc3sc(-c5ccc(CN6CCOC6=O)cc5)cc3-4)cc21` [Compound 62, 3-(4-(3-(1-methyl-1H-indazol-6-yl)-1,4-dihydro-thieno[2′,3′:4,5]cyclopenta [1,2-c]pyrazol-6-yl)benzyl)oxazolidin-2-one], the IC50 in assay [1] was 0.03 to 0.1 µM; in assay [2], over 10 µM; in assay [3] it was over 1 µM; in assay [4], over 10 µM; in assay [5], under 0.03 µM; in assay [6], over 10 µM.
